The subject of data set [1] is C-32 (human amelanotic melanoma). Kind of data set: Cytotoxic activity, WST-1 assay. Format: cell-based. The settings on record: C-32, 72 h, Neg = negative in the concentration used; for IC50: Homo sapiens. Background: Tetrazolium dyes change colour on reduction, which living cells bring about.
In data set [2] the test system is cytopathogenic bovine orphan virus (ECBO) strain LCR-4. As to the kind of experiment: Time of addition assay (post-adsorption), CPE/MTT in A549 cells. Format: cell-based, cytopathogenic bovine orphan virus (BEV-1). The conditions noted are these: for EC50: A549; for antiviral activity: ECBO, A549 cells, CC20 concentration. On the technique in general: Cytopathic effects are the visible damage that an infection or toxin causes in cultured cells.

The subject of data set [3] is SNB-19 (glioblastoma). As to the kind of experiment: Cytotoxic activity, WST-1 assay. Format: cell-based, human. The conditions noted are these: SNB-19, 72 h, Neg = negative in the concentration used; for IC50: Homo sapiens.
Data set [4] deals with MCF-7 (human adenocarcinoma). As to the kind of experiment: Cytotoxic activity, WST-1 assay. Format: cell-based. The conditions noted are these: MCF-7, 72 h, Neg = negative in the concentration used; for IC50: Homo sapiens, MCF7.
Data set [5] has as its system Colo-829 (human malignant melanoma). Kind of data set: Cytotoxic activity, WST-1 assay. Format: cell-based. The conditions noted are these: Homo sapiens; Colo-829, 72 h; Neg = negative in the concentration used.
A short description of data set [6]: Cytotoxicity assay (MTT), determination of CC50. The settings on record: human.
Method: (§1) The cytotoxic effect of compounds on A549 cells was determined by the MTT method, as previously described [36]. The MTT assay is the enzyme-based method, which use the 3-(4,5-dimethylthiazol-2-yl)-2,5-diphenyltetrazolium bromide as a reductive coloring agent. Briefly, subconfluent monolayers of A549 cells (2 × 10^4 cell/well in Dulbecco’s Minimal Essential Medium (DMEM) supplemented with 5% fetal bovine serum (FBS), antibiotics (100 U/mL penicillin and 100 μg/mL streptomycin), and 2 mM L-glutamine (all from Sigma Aldrich, St. Louis, MO, USA) were incubated in 96-multi-well plates in the presence of dilutions of the compounds ranging from 100 μg/mL to 0.5 μg/mL, in triplicate for 48 h at 37 °C in a humidified atmosphere with 5% CO2. After 48 h, 20 μL of MTT solution (Promega, Madison, WI, USA) was added to each well, and the microplates were kept at 37 °C/5% CO2 for 3 h. Then, the solubilization/stop solution containing SDS-HCl (100 μL/well) was added, and the absorbance values of the wells were measured at 570 nm using a 96-well plate reader (Multiskan RC spectrophotometer, Thermo Labsystems, Waltham, MA, USA). Cell viability (%) was calculated for each concentration as Abs treated/Abs control × 100, where Abs treated and Abs control are the absorbance readings for the wells with and without the tested compounds, respectively. The 50% cytotoxic concentration (CC50) was defined as the concentration that reduced cell viability by 50% with respect to controls without drugs. The CC50 value was calculated from the corresponding dose–response curves.
The subject of data set [7] is SKOV-3 human ovarian cancer cell line. As to the kind of experiment: Inhibition of tumor cell proliferation (MTT). The settings on record: SK-OV-3, 96 h, read-out: Max. Inhibition (% of Control).
Method: Antiproliferative activities of the compounds were measured by the MTT assay using A549 cells and a human ovarian cancer cell line SKOV-3 (adenocarcinoma ATCC® HTB77™). A total of 2 × 10^3 cells in DMEM medium supplemented with 5% FBS were placed in each well of a 96-well flat-bottom plate. After 24 h of incubation at 37 °C in 5% CO2, the growth medium was replaced by media containing different concentrations of the derivatives. Control cultures received cisplatin 0.1–10 μg/mL, and blank wells contained 100 μL of growth medium with no cells. After 96 h of incubation, cell proliferation was determined by the colorimetric MTT assay (570 nm) reading for each concentration compared with the control. At least three replicates for each sample were used to determine the cell proliferation.
In data set [8] the test system is T47D (human ductal carcinoma). Kind of data set: Cytotoxic activity, WST-1 assay. Format: cell-based. The settings on record: 72 h, Neg = negative in the concentration used; for IC50: Homo sapiens.
The subject of data set [9] is herpes simplex virus type-1 (HSV-1). As to the kind of experiment: Time of addition assay, CPE/MTT in A549 cells. Format: cell-based. The settings on record: HSV-1, A549 cells, CC20 concentration.
For data set [10], the system named is vesicular stomatitis virus (VSV). Format: cell-based. The settings on record: A549 cells, CC20 concentration.
In data set [11] the test system is human adenovirus type-5 (HAdV-5). Kind of data set: Time of addition assay, CPE/MTT in A549 cells. Format: cell-based. The settings on record: for antiviral activity: HAdV-5, A549 cells, CC20 concentration.
A short description of data set [12]: in vitro. The settings on record: human.
Method: as §1
Data set [13] relates to Klebsiella pneumoniae ATCC 700603. As to the kind of experiment: Broth microdilution method (MIC, MBC). On the technique in general: Broth dilution looks for growth in wells or tubes with falling amounts of substance.
Method: (§2) The minimal inhibitory concentration (MIC) and minimal bactericidal concentration (MBC) were determined by the broth microdilution method, according to the Clinical and Laboratory Standards Institute [32, 33].
(§3) The antibacterial and antifungal activities of compounds were evaluated using the following strains: Staphylococcus aureus (ATCC 25923), Enterococcus faecalis (ATCC 29212), Escherichia coli (ATTC 25922), Pseudomonas aeruginosa (ATTC 27853), Klebsiella pneumoniae ATTC 700603), and Candida albicans (ATTC 10231). Cells were cultured for 24–48 h on Columbia agar or Sabouraud agar (C. albicans) in a saline solution (0.9% NaCl) and adjusted to a 0.5 McFarland density standard (1.5 × 10^8 CFU/mL). The final density of microorganisms was approximately 3 × 10^5 CFU/mL. The solutions of compounds were added to the medium at various concentrations (0.06 μM–2 mM). […] The experiments were performed in triplicate.
Data set [14] has as its system Escherichia coli ATCC 25922. Kind of data set: Broth microdilution method (MIC, MBC).
Method: as §2, §3
The mark [15] stands for this setting: selectivity index, ratio of CC50 to EC50, ECBO in A549 cells.

Converted amounts (≈) assume the structure as drawn. Where two headings read alike, the source gives them in different places.

Usually EC50 stands for the concentration at which the effect is half-maximal. One may read the IC50 as the concentration at which inhibition is half-maximal. A lower IC50 goes with greater potency in that assay. One may read the inhibition as the share of the control response that was lost under treatment. Regarding `C=C(C)[C@@H]1CC[C@]2(CO)CC[C@]3(C)[C@H](CC[C@@H]4[C@@]5(C)CC[C@H](O)C(C)(C)[C@@H]5CC[C@]43C)[C@@H]12` [Betulin 1, Betulin], the “IC50 ± SD” value in data set [1], in data set [4] and in data set [8] was “Neg” in each case. The EC50 in data set [2] is 0.5 µg/mL (≈ 1.13 µM). The SI in data set [2] (setting [15]) stood at 37.0; in [2] (selectivity index, ratio of CC50 to EC50, ECBO in A549 cells, listed as betulin 1), 37. Besides, the IC50 was 17.7 ± 1.2 µM in data set [3] and 15.3 ± 2.2 µM in [5]. Moreover, the CC50 at 48 h in [6] was determined as 18.5 µg/mL (≈ 41.8 µM). Besides, the inhibition at 2.5 µg/mL in data set [7] amounted to 30%.

For `C#CC(=O)OC[C@]12CCC(C(=C)C)C1C1CCC3[C@@]4(C)CC[C@H](O)C(C)(C)C4CC[C@@]3(C)[C@]1(C)CC2` (stereo partly shown) [Compound 3, 28-O-propynoylbetulin], the IC50 stood at 16.7 ± 0.8 µM in data set [1]; 4.2 ± 0.3 µM in data set [3]; 102 ± 1.4 µM in data set [4]; 1.7 ± 0.08 µM in data set [5]; 110.8 ± 0.9 µM in [8]. In addition, the antiviral activity result in data set [2], in [9], in [10] and in [11] was “did not exhibit antiviral activity” in each case.

With `C#CC(=O)OC[C@]12CCC(C(=C)C)C1C1CCC3[C@@]4(C)CC[C@H](OC(=O)C#C)C(C)(C)C4CC[C@@]3(C)[C@]1(C)CC2` (stereo partly shown) [Compound 4, 3,28-O,O’-di(propynoyl)betulin], the figures for the 50% inhibitory concentration (IC50) in data set [1], in data set [3] and in data set [5] were 121 ± 4.1 µM, 13.1 ± 1.3 µM and 9.7 ± 1.5 µM, respectively. The antiviral activity result in data set [2], in data set [9], in [10] and in data set [11] was “did not exhibit antiviral activity” in each case. The “IC50 ± SD” value in [4] and in [8] was “Neg” throughout.

A word on the melting point: it is the temperature of the solid-liquid transition. One may read the MBC as the smallest concentration meeting the test's criterion for killing. The term MIC denotes the lowest concentration that inhibits growth of the organism. Higher therefore signals a need for much substance. Take `C=C(C)C1CCC2(COC(=O)c3cn(C4CC(n5cc(C)c(=O)[nH]c5=O)OC4CO)nn3)CCC3(C)C(CCC4C5(C)CCC(O)C(C)(C)C5CCC43C)C12` (stereo not shown) [Compound 5e]: the melting point is 181 to 185 °C. Further, the IC50 in [1] amounted to 75.2 ± 3.7 µM. The CC50 at 48 h in [12] amounted to 10.3 µg/mL (≈ 13.5 µM). In addition, in data set [2], the midpoint of the response, the EC50, lay at 1 µg/mL (≈ 1.31 µM). Also, in data set [2] (setting [15]), the SI came to 10.3. The “IC50 ± SD” value in [3] is given as “Neg”. In addition, the “IC50 ± SD” value in data set [4] was “Neg”. Also, the “MBC:MIC ratio” value in data set [13] is > 4. Besides, the minimum bactericidal concentration (MBC) in data set [13] (ATCC700603) amounted to 3.9 µM (≈ 2.97 µg/mL). The same molecule came in with an MIC in data set [13] (ATCC700603, 18 h) of 0.95 µM (≈ 0.724 µg/mL). Besides, the bactericidal capacity result in [13] (judged from MBC:MIC ratio) is on record as “bacteriostatic”. The midpoint of inhibition in data set [5], the IC50, lay at 35.1 ± 6.2 µM. In addition, the SI in data set [11] (anti-HAdV-5 activity, ratio of CC50 to EC50, data not shown) is reported as 6. The molecule also displayed a minimal bactericidal concentration (MBC) in data set [14] (ATCC25922) of 7.8 µM (≈ 5.94 µg/mL). In data set [14] (ATCC25922, 18 h), this molecule displayed an MIC of 1.95 µM (≈ 1.49 µg/mL). Besides, the bactericidal capacity entry in data set [14] (judged from MBC:MIC ratio) is reported as “bactericidal activity”. Moreover, the inhibition at 50 µg/mL in data set [7] stood at 75%. In addition, the “IC50 ± SD” value in data set [8] was “total decay of cytotoxic activity and Neg”.

`C=C(C)C1CCC2(COC(=O)c3cn(C4OC(CO)C(O)C(O)C4O)nn3)CCC3(C)C(CCC4C5(C)CCC(O)C(C)(C)C5CCC43C)C12` [Compound 5f, 28-O-[1-(1-Deoxy-β-D-glucopyranosyl)-1H-1,2,3-triazol-4-yl]carbonylbetulin] yielded a melting point of 184 to 186 °C. Besides, the “IC50 ± SD” value in data set [1] is “Neg”. The molecule further showed a CC50 at 48 h in [12] of 100 µg/mL (≈ 143 µM). The midpoint of the response in data set [2], the EC50, lay at 5 µg/mL (≈ 7.14 µM). Moreover, the SI in [2] (setting [15]) was 20.0. Moreover, in [3], the “IC50 ± SD” value is “Neg”. Moreover, in data set [4], the “IC50 ± SD” value is reported as “Neg”. The same molecule had an IC50 in data set [5] of 110 ± 7.2 µM. Also, the inhibition at 25 µg/mL in data set [7] came to 35%. Also, the “IC50 ± SD” value in data set [8] is “total decay of cytotoxic activity and Neg”.

As to `C=C(C)C1CC[C@]2(COC(=O)c3cn(CC(N)C(=O)O)nn3)CC[C@]3(C)C(CCC4[C@@]5(C)CC[C@H](O)C(C)(C)C5CC[C@]43C)C12` (stereo partly shown) [Compound 5j, 2-Amino-3-[4-(28-O-betulinylcarbonyl)-1H-1,2,3-triazol-1-yl]propanoic acid], the melting point is 265 to 269 °C. The “IC50 ± SD” value in data set [1] is recorded as “Neg”. In data set [12], this molecule displayed a CC50 at 48 h of 100 µg/mL (≈ 160 µM). In [2], this molecule had an EC50 of 5 µg/mL (≈ 8 µM). For the same molecule, in [2] (setting [15]), the SI worked out at 20.0. In addition, the “IC50 ± SD” value in data set [3] is “Neg”. Further, in data set [4], the “IC50 ± SD” value is listed as “Neg”. The molecule also returned an IC50 in data set [5] of 3.3 ± 1.1 µM. The inhibition at 10 µg/mL in [7] came to 40%. For the same molecule, in data set [8], the “IC50 ± SD” value was “total decay of cytotoxic activity and Neg”.

On to `C=C(C)C1CC[C@]2(COC(=O)c3cn(CCCO)nn3)CC[C@]3(C)C(CCC4[C@@]5(C)CC[C@H](OC(=O)c6cn(CCCO)nn6)C(C)(C)C5CC[C@]43C)C12` (stereo partly shown) [Compound 6h, 3,28-O,O’-Di[1-(3-hydroxypropyl-1H-1,2,3-triazol-4-yl)carbonyl]betulin], for which the melting point lay within 172 to 176 °C. In addition, the IC50 in [1] was 9.1 ± 0.2 µM. The molecule also yielded a CC50 at 48 h in [12] of 29.8 µg/mL (≈ 39.8 µM). In addition, the midpoint of the response in data set [2], the EC50, lay at 0.25 µg/mL (≈ 0.334 µM). In addition, in data set [3], inhibition was half-maximal at 68.3 ± 0.9 µM (IC50). In data set [4], this molecule had an IC50 of 11.7 ± 1.2 µM. For the same molecule, the antiviral activity entry in [9] was “essentially inactive”. Moreover, the antiviral activity entry in [10] was “essentially inactive”. The molecule further came in with an IC50 in data set [5] of 6.5 ± 1 µM. Moreover, in data set [11], the antiviral activity entry is “essentially inactive”. In addition, the inhibition at 50 µg/mL in data set [7] stood at 70%. Besides, it took 62.4 ± 1.1 µM to reach half-maximal inhibition in data set [8] (IC50).

For the molecule `NC(=O)c1ncn([C@@H]2O[C@H](CO)[C@@H](O)[C@H]2O)n1` [Ribavirin, reference compound], in [2], the SI is listed as 10.0 and the concentration giving a half-maximal response (EC50) came out at 10 µg/mL (≈ 40.9 µM). Besides, in [6] (A549 cells), the CC50 at 48 h is 100 µg/mL (≈ 409 µM). Besides, the inhibition at 1.5 µg/mL in data set [7] came to 30%.

The record behind these values is PMC6150379, “Novel Triazole Hybrids of Betulin: Synthesis and Biological Activity Profile” (Molecules : A Journal of Synthetic Chemistry and Natural …, 2017).
